Reference: patent publication US11076595B2, “1-(n,n-disubstituted carbamoyl) 4-(substituted sulfonyl)triazolin-5-one derivative, 4-(n,n-disubstituted carbamoyl) 1-(substituted sulfonyl)triazolin-5-one derivative, and herbicide containing said derivative as active ingredient” (HOKKO CHEMICAL INDUSTRY CO., LTD., priority 2017, dated 2021)

What was measured:
Type in all cases: in vivo
Scirpus juncoides [1] = test: Test Example 12: herbicidal effect test by treatment during growing period in paddy field; conditions: 120 g/10a; treatment seven days after sowing in flooded paddy pot; assessed 14 days after treatment
Method in brief: (§1)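 Seeds (30 per species) are sown shallowly into fertilized, puddled paddy soil kept under ~3 cm of water in a greenhouse. One week later, compound formulated as an emulsifiable concentrate is applied dropwise to the water at 120 g a.i./10 are. After 14 days, dry weights give percent suppression against untreated controls.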

Lindernia pyxidaria [2] = test: as above; conditions: 120 g/10a; treatment seven days after sowing in flooded paddy pot; assessed 14 days after treatment
Method in brief: as §1

Echinochloa crus-galli [3] = test: as above; conditions: 120 g/10a; treatment seven days after sowing in flooded paddy pot; assessed 14 days after treatment
Method in brief: as §1

Monochoria vaginalis [4] = test: as above; conditions: 120 g/10a; treatment seven days after sowing in flooded paddy pot; assessed 14 days after treatment
Method in brief: as §1

Scirpus juncoides [5] = test: Test Example 11: herbicidal effect test by soil treatment in paddy field; conditions: 120 g/10a active ingredient, 14 days after treatment
Method in brief: (§2)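 Pre-emergence paddy test, 120 g a.i./10 are, emulsifiable concentrate diluted in water and added dropwise to ~3 cm flood water right after sowing (30 seeds/species, 0–1 cm depth, fertilized puddled soil). Greenhouse; 2 replicates; dry-weight suppression (%) vs untreated, day 14.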

Lindernia pyxidaria [6] = test: as above; conditions: 120 g/10a active ingredient, 14 days after treatment
Method in brief: as §2

Echinochloa crus-galli [7] = test: as above; conditions: 120 g/10a active ingredient, 14 days after treatment
Method in brief: as §2

Monochoria vaginalis [8] = test: as above; conditions: 120 g/10a active ingredient, 14 days after treatment
Method in brief: as §2

Structure (SMILES) | Weed suppression rate (%) Scirpus juncoides (Scirpus juncoides [1]) | Weed suppression rate (%) Lindemia pyxidaria (Lindernia pyxidaria [2]) | Weed suppression rate (%) Echinochloa crus-galli (Echinochloa crus-galli [3]) | Weed suppression rate (%) Monochoria vaginalis (Monochoria vaginalis [4]) | Weed suppression rate (%) Scirpus juncoides (Scirpus juncoides [5]) | Weed suppression rate (%) Lindemia pyxidaria (Lindernia pyxidaria [6]) | Weed suppression rate (%) Echinochloa crus-galli (Echinochloa crus-galli [7]) | Weed suppression rate (%) Monochoria vaginalis (Monochoria vaginalis [8])
CN(C(=O)n1cnn(S(C)(=O)=O)c1=O)c1ccc(F)cc1F [Compound 11-1125] | 30% | 70% | 90% | 60% | 60% | 60% | 90% | 60%
CC(C)N(C(=O)n1cnn(S(=O)(=O)c2ccc(Cl)cc2)c1=O)c1c(F)cc(F)cc1F [Compound 11-592] | 80% | 80% | 100% | 100% | 80% | 100% | 100% | 90%
CC(C)N(C(=O)n1cnn(S(=O)(=O)N(C)C)c1=O)c1ccc(C(F)(F)F)cc1Cl [Compound 11-1084] | 90% | 80% | 90% | 80% | 90% | 80% | 90% | 80%
CC(C)N(C(=O)n1cnn(S(=O)(=O)c2cccs2)c1=O)c1ccc(C(F)(F)F)cc1Cl [Compound 11-1042] | 90% | 80% | 90% | 80% | 90% | 80% | 90% | 80%
CC(C)N(C(=O)n1cnn(S(C)(=O)=O)c1=O)c1ccc(Cl)cc1F [Compound 11-20] | 60% | 40% | 70% | 60% | 80% | 40% | 70% | 40%
Cc1cc(C)c(S(=O)(=O)n2ncn(C(=O)N(c3c(F)cc(F)cc3F)C(C)C)c2=O)c(C)c1 [Compound 11-867] | 80% | 70% | 100% | 80% | 80% | 100% | 100% | 80%
CC(C)N(C(=O)n1cnn(S(=O)(=O)c2ccccc2F)c1=O)c1ccc(Br)cc1Cl [Compound 11-413] | 70% | 70% | 60% | 70% | 80% | 90% | 80% | 80%
CC(C)N(C(=O)n1cnn(S(=O)(=O)c2cccc(F)c2)c1=O)c1c(F)cc(F)cc1F [Compound 11-442] | 80% | 80% | 100% | 90% | 80% | 80% | 100% | 70%
O=C(N(CC(F)(F)F)c1ccc(F)cc1F)n1cnn(S(=O)(=O)C2CCCCC2)c1=O [Compound 11-1156] | 30% | 90% | 90% | 60% | 30% | 80% | 70% | 30%
CC(C)N(C(=O)n1cnn(S(=O)(=O)C2CC2)c1=O)c1c(F)c(F)cc(F)c1F [Compound 11-197] | 90% | 80% | 100% | 100% | 100% | 100% | 100% | 70%
Cc1ccc(N(C(=O)n2cnn(S(=O)(=O)c3cccs3)c2=O)C(C)C)c(F)c1 [Compound 11-1036] | 90% | 80% | 90% | 80% | 90% | 90% | 90% | 90%
CC(C)N(C(=O)n1cnn(S(=O)(=O)c2ccc(C(C)(C)C)cc2)c1=O)c1cccc(F)c1F [Compound 11-681] | 100% | 90% | 100% | 100% | 100% | 90% | 100% | 80%
CC(C)N(C(=O)n1cnn(S(=O)(=O)c2ccccc2Cl)c1=O)c1cccc(F)c1F [Compound 11-511] | 100% | 80% | 100% | 100% | 100% | 100% | 100% | 90%
Cc1ccc(S(=O)(=O)n2ncn(C(=O)N(c3ccc(Cl)cc3F)C(C)C)c2=O)cc1 [Compound 11-645] | 60% | 90% | 60% | 90% | 90% | 90% | 100% | 90%
CN(C(=O)n1cnn(S(=O)(=O)c2ccc(F)cc2)c1=O)c1ccc(F)cc1F [Compound 11-1137] | 100% | 70% | 100% | 80% | 100% | 90% | 100% | 80%
CC(C)N(C(=O)n1cnn(S(=O)(=O)c2ccccc2Cl)c1=O)c1ccccc1F [Compound 11-502] | 90% | 80% | 90% | 80% | 90% | 80% | 90% | 80%
